The test system of this assay is Her2 receptor expression at the surface of SKBr3 cells. The assay can be described thus: phenotypic SKBr3/HER2 cell test (Her2 surface expression by flow cytometry). Format: cell-based. To be noted: Homo sapiens, SK-BR-3, 24 h incubation, inhibition of Her2 expression. Here is the method: The cellular activity of the compounds can in particular be evaluated by means of the phenotypic “SKBr3/HER2” cell test described below:
The SKBr3 […] adenocarcinoma cells, overexpressing the Her2 tyrosine kinase receptor, originate from the ATCC (HTB-30) and are cultured in McCoy's 5A medium supplemented with 10% FBS and 1% L-glutamine.
The cells are seeded in 12-well plates at a proportion of 125 000 cells per well in 1 ml of complete medium. The following day, the products are added at varying concentrations. After incubation for 24 h, the cells are trypsinized, washed with PBS and incubated with 100 ng of anti-Her2 antibody coupled to PE (Phycoerythrin) (BD 340552) for 30 minutes at 4° C. in the dark. The fluorescence due to the expression of the Her2 receptor at the surface of the cells is then read using a FACS Calibur flow cytometer (Becton-Dickinson). The percentage inhibition of Her2 expression as a function of the concentrations of product tested is fitted by the nonlinear regression technique (XLfit, equation 205) in order to measure an IC50 for each product.
(In general: Flow cytometry measures light scatter and fluorescence of single cells or particles in a stream.)

Molecules are shown by their SMILES. Where a name gives a salt, the structure may show the parent alone.

`NC(=O)c1ccc(-n2c3ccccc3c3c(-c4cnc5ccccc5c4)cccc32)cn1` [Example 78, 5-[4-(quinolin-3-yl)-9H-carbazol-9-yl]pyridin-2-amide] yielded an IC50 of 1000 to 10000 nM. For the molecule `NC(=O)c1ccc(-n2c3ccccc3c3c(-c4cnc5ccccc5c4)cccc32)cc1NCCCF` [Example 76, 2-(3-fluoropropylamino)-4-[4-(quinolin-3-yl)-9H-carbazol-9-yl]benzamide], the IC50 is below 1000 nM. The molecule `CN(C)CC(=O)O[C@H]1CC[C@H](Nc2cc(-n3c4ccccc4c4c(-c5nc6ccc(F)cc6[nH]5)cccc43)ccc2C(N)=O)CC1` [Example 140, dimethylaminoacetic acid 4-trans-{2-carbamoyl-5-[4(6-fluoro-1H-benzimidazol-2-yl)carbazol-9-yl]phenylamino}cyclohexyl ester] yielded an IC50 below 1000 nM. In turn, `NC(=O)c1ccc(-n2c3ccccc3c3c(-c4nc5ccc(F)cc5[nH]4)cccc32)cc1N[C@H]1CCCC[C@H]1CO` (racemic) [Example 96] returned an IC50 below 1000 nM.

Take `CC1(C)CC(Nc2cc(-n3c4ccccc4c4c(-c5nc6ccc(F)cc6[nH]5)cccc43)ccc2C(N)=O)CC(C)(C)N1` [Example 83]: the IC50 is below 1000 nM.

In turn, `Cn1cc(CNc2cc(-n3c4ccccc4c4c(-c5cnc6ccccc6c5)cccc43)ccc2C(N)=O)cn1` [Example 119, 2-[(1-methyl-1H-pyrazol-4-yl)methylamino]-4-[4-(quinolin-3-yl)-9H-carbazol-9-yl]benzamide] had an IC50 below 1000 nM. Regarding `CC(C)(O)CCNc1cc(-n2c3ccccc3c3c(-c4cnc5ccccc5c4)cccc32)ccc1C(N)=O` [Example 72, 2-(3-hydroxy-3-methylbutylamino)-4-[4-(quinolin-3-yl)-9H-carbazol-9-yl]benzamide], the IC50 was below 1000 nM. With `NC(=O)c1ccc(-n2c3ccccc3c3c(-c4nc5ccc(F)cc5[nH]4)cccc32)cc1NCCC1(O)CCCC1` [Example 71, 4-[4-(6-fluoro-1H-benzimidazol-2-yl)-9H-carbazol-9-yl]-2-[2-(1-hydroxycyclopentyl)ethylamino]benzamide], the IC50 was below 1000 nM. Molecule `CN1CCC(O)(CCNc2cc(-n3c4ccccc4c4c(-c5nc6ccc(F)cc6[nH]5)cccc43)ccc2C(N)=O)CC1` [Example 70, 4-[4-(6-fluoro-1H-benzimidazol-2-yl)-9H-carbazol-9-yl]-2-[2-(4-hydroxy-1-methylpiperidin-4-yl)ethylamino]benzamide] returned an IC50 below 1000 nM. `NC(=O)c1ccc(-n2c3ccccc3c3c(-c4cnc5ccccc5c4)cccc32)cc1N[C@H]1CN2CCC1CC2` [Example 108, 2-((R)-(1-azabicyclo[2.2.2]oct-3-yl)amino)-4-[4-(quinolin-3-yl)-9H-carbazol-9-yl]benzamide] showed an IC50 below 1000 nM.

On to `CN1C(C)(C)CC(Nc2cc(-n3c4ccccc4c4c(-c5ccc(C#N)nc5)cccc43)ccc2C(N)=O)CC1(C)C` [Example 127, 4-[4-(6-cyanopyridin-3-yl)-9H-carbazol-9-yl]-2-[(1,2,2,6,6-pentamethylpiperidin-4-yl)amino]benzamide], for which the IC50 is below 1000 nM. With `CC(C)(O)CNc1cc(-n2c3ccccc3c3c(-c4nc5ccc(F)cc5[nH]4)cccc32)ccc1C(N)=O` [Example 90, 4-[4-(6-fluoro-1H-benzimidazol-2-yl)-9H-carbazol-9-yl]-2-(2-hydroxy-2-methylpropylamino)benzamide] the figure was below 1000 nM; with `CN1CCC(O)(CNc2cc(-n3c4ccccc4c4c(-c5cnc6ccccc6c5)cccc43)ccc2C(N)=O)CC1` [Example 103, 2-[(4-hydroxy-1-methylpiperidin-4-ylmethyl)-amino]-[4-(quinolin-3-yl)-9H-carbazol-9-yl]benzamide], below 1000 nM. `Cn1cnc(CNc2cc(-n3c4ccccc4c4c(-c5nc6ccc(F)cc6[nH]5)cccc43)ccc2C(N)=O)c1` [Example 110, 4-[4-(6-fluoro-1H-benzimidazol-2-yl)-9H-carbazol-9-yl]-2-[(1-methyl-1H-imidazol-4-yl)methylamino]benzamide] yielded an IC50 below 1000 nM. To `CC1(C)CC(Nc2cc(-n3c4ccccc4c4c(-c5cnc6ccccc6c5)cccc43)cnc2C(N)=O)CC(C)(C)N1` [Example 132, 5-[4-(quinolin-3-yl)-9H-carbazol-9-yl)-3-(2,2,6,6-tetramethylpiperidin-4-ylamino)pyridine-2-carboxamide] belongs 1000 to 10000 nM.

Take `CC1(C)CC(Nc2cc(-n3c4ccccc4c4c(-c5cnc6ccccc6c5)cccc43)ccc2C(N)=O)CC(C)(C)N1` [Example 84, 4-[4-(quinolin-3-yl)-9H-carbazol-9-yl]-2-(2,2,6,6-tetramethyl-1H-piperidin-4-ylamino]benzamide]: the IC50 is below 1000 nM.

`NC(=O)c1cnc(-n2c3ccccc3c3c(-c4cnc5ccccc5c4)cccc32)cc1NC1CCOCC1` [Example 137] registered an IC50 below 1000 nM.

`NC(=O)c1ccc(-n2c3ccccc3c3c(-c4cnc5ccccc5c4)cccc32)cc1NC1CCNCC1` [Example 124, 2-(piperidin-4-ylamino)-4-[4-(quinolin-3-yl)-9H-carbazol-9-yl]benzamide hydrochloride] yielded an IC50 below 1000 nM. Turning to `NC(=O)c1ccc(-n2c3ccccc3c3c(-c4nc5ccc(F)cc5[nH]4)cccc32)cc1NC[C@@H]1CCCC[C@@H]1O` (racemic) [Example 93], the IC50 is below 1000 nM. For the molecule `NC(=O)c1ncc(-n2c3ccccc3c3c(-c4cnc5ccccc5c4)cccc32)cc1NCCF` [Example 129, 3-(2-fluoroethylamino)-5-[4-(quinolin-3-yl)-9H-carbazol-9-yl]pyridine-2-carboxamide], the IC50 was below 1000 nM.

The molecule `NC(=O)c1ccc(-n2c3ccccc3c3c(-c4cnc5ccccc5c4)cccc32)cc1NCc1cccnc1` [Example 105, 2-[(pyridin-3-ylmethyl)amino]-4-[4-(quinolin-3-yl)-9H-carbazol-9-yl]benzamide] registered an IC50 below 1000 nM. Molecule `NC(=O)c1ccc(-n2c3ccccc3c3c(-c4nc5ccc(F)cc5[nH]4)cccc32)cc1NCCCF` [Example 75, 4-[4-(6-fluoro-1H-benzimidazol-2-yl)-9H-carbazol-9-yl]-2-(3-fluoropropylamino)benzamide] gave an IC50 below 1000 nM. For `NC(=O)c1ccc(-n2c3ccccc3c3c(-c4cnc5ccccc5c4)cccc32)cc1NCCc1cccnc1` [Example 107, 2-[2-(pyridin-3-yl)ethylamino]-4-[4-(quinolin-3-yl)-9H-carbazol-9-yl]benzamide], the IC50 was below 1000 nM. `NC(=O)c1ccc(-n2c3ccccc3c3c(-c4cnc5ccccc5c4)cccc32)cc1NCc1ccccn1` [Example 86, 2-[(pyridin-2-ylmethyl)amino]-4-[4-(quinolin-3-yl)-9H-carbazol-9-yl]benzamide] had an IC50 below 1000 nM.

The molecule `NC(=O)c1ccc(-n2c3ccccc3c3c(-c4cnc5ccccc5c4)cccc32)cc1N[C@H]1CCCC[C@H]1CO` (racemic) [Example 101, 2-[1(S,R),2(R,S)-2-hydroxymethylcyclohexyl-1-amino]-4-[4-(quinolin-3-2-yl)-9H-carbazol-9-yl]benzamide] showed an IC50 below 1000 nM.

In turn, `CC(C)(O)CNc1cc(-n2c3ccccc3c3c(-c4cnc5ccccc5c4)cccc32)ccc1C(N)=O` [Example 91, (2-hydroxy-2-methylpropylamino)-4-[4-(quinolin-3-yl)-9H-carbazol-9-yl]-2-benzamide] returned an IC50 below 1000 nM. With `NC(=O)c1ccc(-n2c3ccccc3c3c(-c4cnc5ccccc5c4)cccc32)cc1NCCn1ccnc1` [Example 87, 2-[2-(1H-imidazol-1-yl)ethylamino]-4-[4-(quinolin-3-yl)-9H-carbazol-9-yl]benzamide], the IC50 is below 1000 nM. In the case of `NC(=O)c1ccc(-n2c3ccccc3c3c(-c4nc5ccc(F)cc5[nH]4)cccc32)cc1N[C@@H]1CN2CCC1CC2` [Example 99, 2-{(S)-(1-azabicyclo[2.2.2]oct-3-yl)amino}-4-[4-(6-fluoro-1H-benzimidazol-2-yl)-9H-carbazol-9-yl]benzamide], the IC50 was below 1000 nM. `NC(=O)c1ccc(-n2c3ccccc3c3c(-c4nc5ccc(F)cc5[nH]4)cccc32)cc1NCCc1ccccn1` [Example 79, 4-[4-(6-fluoro-1H-benzimidazol-2-yl)-9H-carbazol-9-yl]-2-[2-(pyridin-2-yl)ethylamino]benzamide] gave an IC50 below 1000 nM.

Molecule `CC(C)(O)CNc1cc(-n2c3ccccc3c3c(-c4cnc5ccccc5c4)cccc32)cnc1C(N)=O` [Example 139] registered a 50% inhibitory concentration (IC50) below 1000 nM. The molecule `NC(=O)c1ccc(-n2c3ccccc3c3c(-c4nc5ccc(F)cc5[nH]4)cccc32)cc1NCCc1cccnc1` [Example 106, 4-[4-(6-fluoro-1H-benzimidazol-2-yl)-9H-carbazol-9-yl]-2-[2-(pyridin-3-yl)-ethylamino]benzamide] showed an IC50 below 1000 nM. `NC(=O)c1ccc(-n2c3ccccc3c3c(-c4cnc5ccccc5c4)cccc32)cc1NCCc1ccccn1` [Example 80, 4-[4-(quinolin-3-yl)-9H-carbazol-9-yl]-2-[2-(pyridin-2-yl)ethylamino]benzamide] had an IC50 below 1000 nM. With `NC(=O)c1ccc(-n2c3ccccc3c3c(-c4nc5ccc(F)cc5[nH]4)cccc32)cc1N[C@H]1CCC[C@H]1CO` (racemic) [Example 118, 4-[4-(6-fluoro-1H-benzimidazol-2-yl)-9H-carbazol-9-yl]-2-[2(R,S)-hydroxymethylcyclopentan-1(S,R)-amino]benzamide] the figure was below 1000 nM.

A word on the IC50: it is the point on the concentration scale where inhibition reaches its midpoint. Read a high IC50 as weaker potency in that assay.

Source of the values: US8309721B2, “HSP90 inhibitory carbazole derivatives, compositions containing same and use thereof” (Sanofi, priority 2008, dated 2012).
